# From ChEMBL document CHEMBL1143518, “Binding of isotryptamines and indenes at h5-HT6 serotonin receptors” (Bioorg Med Chem Lett, 2005)
# Biological target: 5-hydroxytryptamine receptor 6 (Homo sapiens, UniProt P50406)
# Assay: Binding affinity against human 5-Hydroxytryptamine 6 receptor expressed in HEK293 cells using [3H]LSD done for 90 minutes at pH 7.4 at room temperature
# Type: cell-based
# Sequence of 5-hydroxytryptamine receptor 6 (P50406 whole entry): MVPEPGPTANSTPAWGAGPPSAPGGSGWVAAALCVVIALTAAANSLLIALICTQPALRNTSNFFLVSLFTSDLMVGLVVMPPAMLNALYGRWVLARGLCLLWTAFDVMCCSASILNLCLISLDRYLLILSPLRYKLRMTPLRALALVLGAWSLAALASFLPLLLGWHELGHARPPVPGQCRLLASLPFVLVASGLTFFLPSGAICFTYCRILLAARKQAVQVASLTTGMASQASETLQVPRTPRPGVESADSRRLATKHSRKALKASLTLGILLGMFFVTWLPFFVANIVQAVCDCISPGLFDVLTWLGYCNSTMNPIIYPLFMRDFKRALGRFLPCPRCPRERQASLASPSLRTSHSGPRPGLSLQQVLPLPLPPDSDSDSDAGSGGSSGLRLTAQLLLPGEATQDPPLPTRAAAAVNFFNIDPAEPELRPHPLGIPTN
row,Compound,Ki [nM]
1,Nc1ccc(SC2CCc3ccccc32)cc1 (configuration not stated),4200
2,Nc1ccc(S(=O)(=O)C2CCc3ccccc32)cc1 (configuration not stated),740
3,Nc1ccc(/C=C2\C=Cc3ccccc32)cc1,640
4,Nc1ccc(CC2C=Cc3ccccc32)cc1 (configuration not stated),4470
5,CN(C)CCn1cc(Cc2ccc(N)cc2)c2ccccc21,50
6,CNCCC1=CC(Cc2ccccc2)c2ccccc21 (configuration not stated),3
7,CNCCC1=CC(CCc2ccccc2)c2ccccc21 (configuration not stated),100
8,Nc1ccc(CC2CCc3ccccc32)cc1 (configuration not stated),6100
9,Nc1ccc(Cc2c[nH]c3ccccc23)cc1,2530
10,Nc1ccc(CC2=CCc3ccccc32)cc1,11800
11,CN(C)CCc1cn(CCc2ccccc2)c2ccccc12,12
12,CN(C)CCC1=C/C(=C\c2ccccc2)c2ccccc21,57
